This is an account of results in patent US5155123A, “Pyridine derivatives and pharmaceutical compositions containing them” (Richter Gedeon Vegyeszeti Gyar R.T., priority 1989, dated 1992).

One data set concerns gastric acid secretion. Put plainly: gastric acid secretion-inhibiting effect, Shay's method (pylorus-ligated rats). Format: in vivo, rat (female H-Wistar). Particulars: Rattus norvegicus. As to the method: According to this method female H-Wistar rats weighing 120 to 150 g were starved in latticed cages for 24 hours. The animals received water ad libitum. Then their pylorus was ligated under a slight ether anaesthesia. The test compounds were administered during the surgical intervention. After 4 hours the animals were killed by ether narcosis. After excision of the stomach the volume and pH value of the gastric content were measured. In several cases the hydrochloric acid content was determined by titration.

The test system of data set [1] is gastric ulcers induced in rats by indomethacine. Put plainly: inhibition of gastric ulcers induced by indomethacine in rats. Particulars: 50 mg/kg oral dose, ulcers induced by 40 mg/kg s.c. indomethacine. The data set is classed as in vivo, rat. As to the method:
An 50 mg/kg oral dose of 1-benzyl-2-(cyanoimino)pyridine inhibits the development of gastric ulcers induced in rats by 40 mg/kg subcutaneous (s.c.) dose of indomethacine (chemically [1-(4-chlorobenzoyl)-2-methyl-5-methoxyindol-3-yl]acetic acid) by 100%.

A further data set has as its system rats. Particulars: rat, in vivo, po, 120 mg/kg.
The mark [2] stands for this setting: Shay's method, female H-Wistar rats 120 to 150 g, starved 24 hours, pylorus ligated, 4 hours, given during the surgical intervention, read-out: ED50.

Each structure is given as a SMILES string. Read-outs that look alike come from different tables or passages of the source.

For `N#CN=c1ccccn1Cc1ccccc1Cl` [1-(2-chlorobenzyl)-2-(cyanoimino)pyridine], the median effective dose (ED50) in the data set on gastric acid secretion (setting [2]) stood at 1.8 mg/kg. Turning to `N#CN=c1ccccn1Cc1cccc(Cl)c1` [1-(3-chlorobenzyl)-2-(cyanoimino)pyridine], in the data set with gastric acid secretion (setting [2]), the median effective dose (ED50) amounted to 9.88 mg/kg. On to `N#CN=c1ccccn1Cc1ccccc1` [1-benzyl-2-(cyanoimino)pyridine], for which, in the data set with gastric acid secretion (setting [2]), the ED50 was determined as 3.26 mg/kg. For the same compound, the “inhibition of the development of gastric ulcers” value in data set [1] amounted to 100%. Moreover, the toxic symptom entry in the data set with rats is given as “No toxic symptom”. Take `O=[N+]([O-])N=c1ccccn1Cc1ccccc1` [1-benzyl-2-(nitroiminopyridine, 1-benzyl-2-(nitroimino)pyridine]: the 50% effective dose (ED50) in the data set with gastric acid secretion (setting [2]) was 13.6 mg/kg. Take `N#CN=c1ccccn1Cc1ccccc1F` [2-(cyanoimino)-1-(2-fluorobenzyl)pyridine]: in the data set on gastric acid secretion (setting [2]), the ED50 came out at 4.3 mg/kg. Take `Cc1ccccc1Cn1ccccc1=NC#N` [2-(cyanoimino)-1-(2-methylbenzyl)pyridine]: the ED50 in the data set on gastric acid secretion (setting [2]) was 11.7 mg/kg. Same read-out and setting: under `N#CN=c1ccccn1Cc1cccc(C(F)(F)F)c1` [2-(cyanoimino)-1-(3-trifluoromethylbenzyl)pyridine] stands 12.2 mg/kg.

As for `N#CN=c1ccccn1Cc1ccc(F)cc1` [2-(cyanoimino)-1-(4-fluorobenzyl)pyridine], in the data set with gastric acid secretion (setting [2]), the 50% effective dose (ED50) worked out at 8.36 mg/kg.

For the compound `CN=C(NC#N)NCCSCc1nc[nH]c1C` [cimetidine, 1-cyano-2-methyl-3-[2-[[(5-methylimidazol-4-yl)methyl]thio]ethyl]-guanidine, reference compound], the ED50 in the data set with gastric acid secretion (po, 4 h, read-out: oral ED50) is 50 mg/kg.

What is called ED50 is the dose that gives a 50% effect, or the effect in half of the subjects.
